In patent US11377442B2, “Small molecule agonists and antagonists of NR2F6 activity” (ZANDER THERAPEUTICS, INC., priority 2016, dated 2022):

Target: T1, NR2F6 (Homo sapiens, UniProt P10588)
T1 construct: expressed in transfected cells; also transient transfection
T1 sequence (P10588 1-404): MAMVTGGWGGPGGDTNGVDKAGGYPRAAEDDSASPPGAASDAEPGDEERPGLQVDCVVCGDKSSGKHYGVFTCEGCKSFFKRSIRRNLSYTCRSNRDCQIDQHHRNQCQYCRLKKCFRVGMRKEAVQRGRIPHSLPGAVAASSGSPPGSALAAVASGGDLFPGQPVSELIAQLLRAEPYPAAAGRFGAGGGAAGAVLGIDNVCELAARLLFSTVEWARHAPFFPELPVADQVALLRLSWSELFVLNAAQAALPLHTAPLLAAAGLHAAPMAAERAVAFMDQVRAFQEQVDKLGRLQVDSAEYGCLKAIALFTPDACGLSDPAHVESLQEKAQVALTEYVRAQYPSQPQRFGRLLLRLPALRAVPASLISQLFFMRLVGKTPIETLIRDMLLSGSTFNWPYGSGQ
Assay: NR2F6 agonist screening, Firefly signal cmpd/DMSO
Assay type: cell-based
Conditions: for Firefly/Renilla (NR2F6 stable, clone F4): ratio Firefly/Renilla; for Firefly, NR2F6 stable (clone F4)/pGL4: ratio of Firefly in NR2F6 stable clone F4 to pGL4

[1] = C11 analogs follow set (Tables 2-10)

Firefly, cmpd/DMSO repeat 1 (Table 9) | Firefly, cmpd/DMSO repeat 2 (Table 9) | SMILES | also measured
 |  | COc1ccc2oc(=O)c(S(=O)(=O)c3ccccc3F)cc2c1 [Compound C221] | Firefly, cmpd/DMSO repeat 1 [1]: 1.3; Firefly, cmpd/DMSO repeat 2 [1]: 0.9
 |  | COc1ccc2oc(=O)c(S(=O)(=O)c3cccc(Cl)c3)cc2c1 [Compound C222] | Firefly, cmpd/DMSO repeat 1 [1]: 4.5; Firefly, cmpd/DMSO repeat 2 [1]: 3.7; Firefly/Renilla (NR2F6 stable, clone F4) (Table 13): 2.0; Firefly, NR2F6 stable (clone F4)/pGL4 (Table 13): 3.6; Firefly, cmpd/DMSO repeat 1 (Table 13): 4.5; Firefly, cmpd/DMSO repeat 2 (Table 13): 3.7
 |  | Cc1cc(S(=O)(=O)c2cc3cc(Br)ccc3oc2=O)ccc1F [Compound C223] | Firefly, cmpd/DMSO repeat 1 [1]: 4.5; Firefly, cmpd/DMSO repeat 2 [1]: 5.1
 |  | Cc1cc(S(=O)(=O)c2cc3cc(Cl)ccc3oc2=O)ccc1F [Compound C224] | Firefly, cmpd/DMSO repeat 1 [1]: 6.6; Firefly, cmpd/DMSO repeat 2 [1]: 11.4
 |  | COc1ccc2oc(=O)c(S(=O)(=O)c3ccc(F)c(C)c3)cc2c1 [Compound C225] | Firefly, cmpd/DMSO repeat 1 [1]: 1.5; Firefly, cmpd/DMSO repeat 2 [1]: 3.1
1.1 | 1.0 | COc1cccc(S(=O)(=O)c2cc3cccc(OC)c3oc2=O)c1 [Compound C226] | 
1.0 | 1.3 | COc1cccc2cc(S(=O)(=O)c3cc(C)cc(C)c3)c(=O)oc12 [Compound C227] | 
1.0 | 1.3 | COc1cccc2cc(S(=O)(=O)c3ccc(C)c(Cl)c3)c(=O)oc12 [Compound C228] | 
2.9 | 1.8 | COc1cccc2cc(S(=O)(=O)c3cc(F)cc(F)c3)c(=O)oc12 [Compound C229] | 
12.5 | 8.3 | CCOc1cccc2cc(S(=O)(=O)c3cc(F)cc(F)c3)c(=O)oc12 [Compound C230] | Firefly/Renilla (NR2F6 stable, clone F4) (Table 12): 2.5; Firefly, NR2F6 stable (clone F4)/pGL4 (Table 12): 6.5; Firefly, cmpd/DMSO repeat 1 (Table 12): 12.5; Firefly, cmpd/DMSO repeat 2 (Table 12): 8.3
0.7 | 0.9 | COc1cccc2cc(S(=O)(=O)c3ccc(C)cc3)c(=O)oc12 [Compound C231] | 
1.0 | 0.9 | COc1ccc(S(=O)(=O)c2cc3cccc(OC)c3oc2=O)cc1 [Compound C232] | 
2.8 | 2.1 | COc1cccc2cc(S(=O)(=O)c3ccc(Br)cc3)c(=O)oc12 [Compound C233] | 
2.2 | 1.8 | COc1cccc2cc(S(=O)(=O)c3ccc(C(C)(C)C)cc3)c(=O)oc12 [Compound C234] | 
4.4 | 4.9 | CCOc1cccc2cc(S(=O)(=O)c3ccc(C)cc3)c(=O)oc12 [Compound C236] | 
3.5 | 2.9 | CCOc1cccc2cc(S(=O)(=O)c3ccc(F)cc3)c(=O)oc12 [Compound C237] | 
1.4 | 2.2 | CCOc1cccc2cc(S(=O)(=O)c3ccc(Br)cc3)c(=O)oc12 [Compound C239] | 
1.5 | 0.9 | CCOc1cccc2cc(S(=O)(=O)c3ccc(C(C)(C)C)cc3)c(=O)oc12 [Compound C240] | 
2.1 | 2.7 | COc1cccc2cc(S(=O)(=O)c3ccc(C(C)C)cc3)c(=O)oc12 [Compound C241] | 
1.1 | 1.1 | COc1cccc2cc(S(=O)(=O)c3ccc(C)c(C)c3)c(=O)oc12 [Compound C242] | 

Firefly, cmpd/DMSO repeat 1 (Table 9) | Firefly, cmpd/DMSO repeat 2 (Table 9) | SMILES | also measured
2.0 | 3.3 | CCOc1cccc2cc(S(=O)(=O)c3ccc(C)c(C)c3)c(=O)oc12 [Compound C243] | 
9.7 | 14.1 | CCOc1cccc2cc(S(=O)(=O)c3ccc(Cl)cc3)c(=O)oc12 [Compound C244] | 
1.9 | 1.3 | COc1cccc2cc(S(=O)(=O)c3ccc(Cl)c(Cl)c3)c(=O)oc12 [Compound C245] | 
7.4 | 6.5 | CCOc1cccc2cc(S(=O)(=O)c3ccc(Cl)c(Cl)c3)c(=O)oc12 [Compound C246] | 
2.2 | 1.6 | COc1ccc(S(=O)(=O)c2cc3cccc(OC)c3oc2=O)cc1OC [Compound C247] | 
8.6 | 4.3 | CCOc1cccc2cc(S(=O)(=O)c3ccc(OC)c(OC)c3)c(=O)oc12 [Compound C248] | Firefly/Renilla (NR2F6 stable, clone F4) (Table 12): 2.8; Firefly, NR2F6 stable (clone F4)/pGL4 (Table 12): 4.6; Firefly, cmpd/DMSO repeat 1 (Table 12): 8.6; Firefly, cmpd/DMSO repeat 2 (Table 12): 4.3
1.4 | 1.5 | COc1ccc(OC)c(S(=O)(=O)c2cc3cccc(OC)c3oc2=O)c1 [Compound C249] | 
1.2 | 1.8 | COc1cccc2cc(S(=O)(=O)c3ccc(F)c(Cl)c3)c(=O)oc12 [Compound C250] | 
2.1 | 1.9 | CCOc1cccc2cc(S(=O)(=O)c3ccc(F)c(Cl)c3)c(=O)oc12 [Compound C251] | 
3.2 | 2.4 | CCOc1ccc(S(=O)(=O)c2cc3cccc(OCC)c3oc2=O)cc1 [Compound C252] | 
2.5 | 2.7 | COc1cccc2cc(S(=O)(=O)c3ccccc3F)c(=O)oc12 [Compound C253] | 
7.6 | 5.1 | CCOc1cccc2cc(S(=O)(=O)c3ccccc3F)c(=O)oc12 [Compound C254] | Firefly/Renilla (NR2F6 stable, clone F4) (Table 12): 2.4; Firefly, NR2F6 stable (clone F4)/pGL4 (Table 12): 4.4; Firefly, cmpd/DMSO repeat 1 (Table 12): 7.6; Firefly, cmpd/DMSO repeat 2 (Table 12): 5.1
1.5 | 1.5 | COc1cccc2cc(S(=O)(=O)c3cccc(Cl)c3)c(=O)oc12 [Compound C255] | 
11.5 | 7.9 | CCOc1cccc2cc(S(=O)(=O)c3cccc(Cl)c3)c(=O)oc12 [Compound C256] | Firefly/Renilla (NR2F6 stable, clone F4) (Table 12): 2.3; Firefly, NR2F6 stable (clone F4)/pGL4 (Table 12): 4.5; Firefly, cmpd/DMSO repeat 1 (Table 12): 11.5; Firefly, cmpd/DMSO repeat 2 (Table 12): 7.9
2.1 | 1.6 | COc1cccc2cc(S(=O)(=O)c3ccc(F)c(C)c3)c(=O)oc12 [Compound C257] | 
1.5 | 1.8 | CCOc1cccc2cc(S(=O)(=O)c3ccc(F)c(C)c3)c(=O)oc12 [Compound C258] | 
 |  | COc1cccc(S(=O)(=O)c2cc3ccc(OC)cc3oc2=O)c1 [Compound C259] | Firefly, cmpd/DMSO repeat 1 [1]: 1.3; Firefly, cmpd/DMSO repeat 2 [1]: 1.9
 |  | COc1ccc2cc(S(=O)(=O)c3cc(C)cc(C)c3)c(=O)oc2c1 [Compound C260] | Firefly, cmpd/DMSO repeat 1 [1]: 1.0; Firefly, cmpd/DMSO repeat 2 [1]: 1.0
 |  | COc1ccc2cc(S(=O)(=O)c3ccc(C)c(Cl)c3)c(=O)oc2c1 [Compound C261] | Firefly, cmpd/DMSO repeat 1 [1]: 2.0; Firefly, cmpd/DMSO repeat 2 [1]: 1.4
 |  | COc1ccc2cc(S(=O)(=O)c3cc(F)cc(F)c3)c(=O)oc2c1 [Compound C262] | Firefly, cmpd/DMSO repeat 1 [1]: 1.8; Firefly, cmpd/DMSO repeat 2 [1]: 2.2
